Laboratory results: PubChem BioAssay (NCI)
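Assay format: 96-well plates, 48-hour exposure. Here, GI50 denotes the concentration required for 50% inhibition of growth. The concentration for full growth arrest is given as TGI.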

Legend:
Experiment in all cases: growth of human tumour cells (NCI), 48 h
786-0 renal = system: 786-0 renal
A498 renal = system: A498 renal
A549 NSCLC = system: A549 NSCLC
ACHN renal = system: ACHN renal
BT-549 breast = system: BT-549 breast
CAKI-1 renal = system: CAKI-1 renal
CCRF-CEM leukemia = system: CCRF-CEM leukemia
COLO 205 colon = system: COLO 205 colon
DU-145 prostate = system: DU-145 prostate
EKVX NSCLC = system: EKVX NSCLC
HCC-2998 colon = system: HCC-2998 colon
HCT-116 colon = system: HCT-116 colon
HCT-15 colon = system: HCT-15 colon
HOP-62 NSCLC = system: HOP-62 NSCLC
HOP-92 NSCLC = system: HOP-92 NSCLC
HS 578T breast = system: HS 578T breast
HT29 colon = system: HT29 colon
IGROV1 ovarian = system: IGROV1 ovarian
KM12 colon = system: KM12 colon
LOX IMVI melanoma = system: LOX IMVI melanoma
M14 melanoma = system: M14 melanoma
MALME-3M melanoma = system: MALME-3M melanoma
MCF7 breast = system: MCF7 breast
MDA-MB-231 breast = system: MDA-MB-231 breast
MDA-MB-435 = system: MDA-MB-435
NCI-H226 lung = system: NCI-H226 lung
NCI-H460 lung = system: NCI-H460 lung
NCI-H522 lung = system: NCI-H522 lung
NCI/ADR-RES ovarian = system: NCI/ADR-RES ovarian
OVCAR-3 ovarian = system: OVCAR-3 ovarian
OVCAR-4 ovarian = system: OVCAR-4 ovarian
OVCAR-5 ovarian = system: OVCAR-5 ovarian
OVCAR-8 ovarian = system: OVCAR-8 ovarian
PC-3 prostate = system: PC-3 prostate
RPMI-8226 leukemia = system: RPMI-8226 leukemia
RXF 393 renal = system: RXF 393 renal
SF-268 CNS = system: SF-268 CNS
SF-295 CNS = system: SF-295 CNS
SF-539 CNS = system: SF-539 CNS
SK-MEL-2 melanoma = system: SK-MEL-2 melanoma
SK-MEL-28 melanoma = system: SK-MEL-28 melanoma
SK-MEL-5 melanoma = system: SK-MEL-5 melanoma
SK-OV-3 ovarian = system: SK-OV-3 ovarian
SN12C renal = system: SN12C renal
SNB-19 CNS = system: SNB-19 CNS
SNB-75 CNS = system: SNB-75 CNS
SW-620 colon = system: SW-620 colon
T-47D breast = system: T-47D breast
TK-10 renal = system: TK-10 renal
U251 CNS = system: U251 CNS
UACC-257 melanoma = system: UACC-257 melanoma
UACC-62 melanoma = system: UACC-62 melanoma
UO-31 renal = system: UO-31 renal
HL-60(TB) leukemia = system: HL-60(TB) leukemia
K-562 leukemia = system: K-562 leukemia
MOLT-4 leukemia = system: MOLT-4 leukemia
SR leukemia = system: SR leukemia

With `OC1CCN(CCCOc2c3ccccc3nc3c2oc2ccccc23)CC1` the GI50 (786-0 renal) was 2.3 µM, the TGI (786-0 renal) was 18 µM and the GI50 (A498 renal) was 1.73 µM. It also gave a TGI (A498 renal) of 3.38 µM, a GI50 (A549 NSCLC) of 2.54 µM and a TGI (A549 NSCLC) of 16.4 µM. The GI50 (ACHN renal) was 0.8 µM, the TGI (ACHN renal) was 25.2 µM and the GI50 (BT-549 breast) was 2.8 µM. For the same compound, the TGI (BT-549 breast) was 8.88 µM, the GI50 (CAKI-1 renal) was 1.67 µM and the TGI (CAKI-1 renal) was 12.9 µM. The GI50 (CCRF-CEM leukemia) was 2.12 µM, the TGI (CCRF-CEM leukemia) was 16.3 µM and the GI50 (COLO 205 colon) was 1.06 µM. It also gave a TGI (COLO 205 colon) of 2.83 µM, a GI50 (DU-145 prostate) of 3.66 µM and a TGI (DU-145 prostate) of 23.1 µM. It also gave a GI50 (EKVX NSCLC) of 2.79 µM, a TGI (EKVX NSCLC) of 12.9 µM and a GI50 (HCC-2998 colon) of 1.46 µM. It also gave a TGI (HCC-2998 colon) of 3.76 µM, a GI50 (HCT-116 colon) of 0.505 µM and a TGI (HCT-116 colon) of 12.3 µM. The GI50 (HCT-15 colon) was 2.02 µM, the TGI (HCT-15 colon) was 9.73 µM and the GI50 (HOP-62 NSCLC) was 2.32 µM. For the same compound, the TGI (HOP-62 NSCLC) was 11.9 µM, the GI50 (HOP-92 NSCLC) was 0.853 µM and the TGI (HOP-92 NSCLC) was 4.28 µM. It also gave a GI50 (HS 578T breast) of 2.38 µM, a TGI (HS 578T breast) of 8.83 µM and a GI50 (HT29 colon) of 1.1 µM. The TGI (HT29 colon) was 3.65 µM, the GI50 (IGROV1 ovarian) was 2.61 µM and the TGI (IGROV1 ovarian) was 11.3 µM. The GI50 (KM12 colon) was 2.99 µM, the TGI (KM12 colon) was 49.6 µM and the GI50 (LOX IMVI melanoma) was 0.626 µM. For the same compound, the TGI (LOX IMVI melanoma) was 3.51 µM, the GI50 (M14 melanoma) was 2.39 µM and the TGI (M14 melanoma) was 7.89 µM. The GI50 (MALME-3M melanoma) was 1.86 µM, the TGI (MALME-3M melanoma) was 3.95 µM and the GI50 (MCF7 breast) was 2.31 µM. It also gave a TGI (MCF7 breast) of 10.1 µM, a GI50 (MDA-MB-231 breast) of 2.37 µM and a TGI (MDA-MB-231 breast) of 11.1 µM. For the same compound, the GI50 (MDA-MB-435) was 2.31 µM, the TGI (MDA-MB-435) was 6.79 µM and the GI50 (NCI-H226 lung) was 1.9 µM. The TGI (NCI-H226 lung) was 4.74 µM, the GI50 (NCI-H460 lung) was 1.59 µM and the TGI (NCI-H460 lung) was 11.1 µM. For the same compound, the GI50 (NCI-H522 lung) was 1.57 µM, the TGI (NCI-H522 lung) was 4.38 µM and the GI50 (NCI/ADR-RES ovarian) was 1.03 µM. The TGI (NCI/ADR-RES ovarian) was 8.1 µM, the GI50 (OVCAR-3 ovarian) was 3.61 µM and the TGI (OVCAR-3 ovarian) was 24.9 µM. The GI50 (OVCAR-4 ovarian) was 2.14 µM, the TGI (OVCAR-4 ovarian) was 8.63 µM and the GI50 (OVCAR-5 ovarian) was 2.47 µM. It also gave a TGI (OVCAR-5 ovarian) of 9.49 µM, a GI50 (OVCAR-8 ovarian) of 1.81 µM and a TGI (OVCAR-8 ovarian) of 6.71 µM. It also gave a GI50 (PC-3 prostate) of 2.12 µM, a TGI (PC-3 prostate) of 7.93 µM and a GI50 (RPMI-8226 leukemia) of 2.47 µM. It also gave a TGI (RPMI-8226 leukemia) of 7.46 µM, a GI50 (RXF 393 renal) of 1.32 µM and a TGI (RXF 393 renal) of 3.64 µM. The GI50 (SF-268 CNS) was 2.53 µM, the TGI (SF-268 CNS) was 14.8 µM and the GI50 (SF-295 CNS) was 2.39 µM. The TGI (SF-295 CNS) was 10.5 µM, the GI50 (SF-539 CNS) was 2.02 µM and the TGI (SF-539 CNS) was 6.4 µM. The GI50 (SK-MEL-2 melanoma) was 1.93 µM, the TGI (SK-MEL-2 melanoma) was 3.59 µM and the GI50 (SK-MEL-28 melanoma) was 1.93 µM. The TGI (SK-MEL-28 melanoma) was 3.81 µM, the GI50 (SK-MEL-5 melanoma) was 1.77 µM and the TGI (SK-MEL-5 melanoma) was 3.2 µM. The GI50 (SK-OV-3 ovarian) was 2.56 µM, the TGI (SK-OV-3 ovarian) was 8.7 µM and the GI50 (SN12C renal) was 1.7 µM. It also gave a TGI (SN12C renal) of 13.5 µM, a GI50 (SNB-19 CNS) of 2.36 µM and a TGI (SNB-19 CNS) of 14.8 µM. For the same compound, the GI50 (SNB-75 CNS) was 1.86 µM, the TGI (SNB-75 CNS) was 4.3 µM and the GI50 (SW-620 colon) was 0.825 µM. It also gave a TGI (SW-620 colon) of 11.9 µM, a GI50 (T-47D breast) of 2.51 µM and a TGI (T-47D breast) of 7.27 µM. For the same compound, the GI50 (TK-10 renal) was 2.41 µM, the TGI (TK-10 renal) was 7.73 µM and the GI50 (U251 CNS) was 2.14 µM. It also gave a TGI (U251 CNS) of 12.2 µM, a GI50 (UACC-257 melanoma) of 1.83 µM and a TGI (UACC-257 melanoma) of 3.72 µM. The GI50 (UACC-62 melanoma) was 1.86 µM, the TGI (UACC-62 melanoma) was 4.43 µM and the GI50 (UO-31 renal) was 1.18 µM. For the same compound, the TGI (UO-31 renal) was 3.13 µM.
`COc1ccc2[nH]cc(/C=N/Nc3ccnc4cc(Cl)ccc34)c2c1` was tested, and the GI50 (A498 renal) was 1.49 µM, the TGI (A498 renal) was 2.83 µM and the GI50 (ACHN renal) was 0.346 µM. The TGI (ACHN renal) was 1.07 µM, the GI50 (BT-549 breast) was 1.68 µM and the TGI (BT-549 breast) was 3.09 µM. The GI50 (CAKI-1 renal) was 1.54 µM, the TGI (CAKI-1 renal) was 2.91 µM and the GI50 (CCRF-CEM leukemia) was 0.304 µM. The TGI (CCRF-CEM leukemia) was 1.12 µM, the GI50 (DU-145 prostate) was 0.729 µM and the TGI (DU-145 prostate) was 1.98 µM. The GI50 (HCC-2998 colon) was 1.67 µM, the TGI (HCC-2998 colon) was 3.19 µM and the GI50 (HL-60(TB) leukemia) was 0.265 µM. The TGI (HL-60(TB) leukemia) was 0.859 µM, the GI50 (HS 578T breast) was 1.99 µM and the TGI (HS 578T breast) was 4.81 µM. For the same compound, the GI50 (HT29 colon) was 0.219 µM, the TGI (HT29 colon) was 0.482 µM and the GI50 (K-562 leukemia) was 0.3 µM. The TGI (K-562 leukemia) was greater than 100 µM, the GI50 (KM12 colon) was 1.65 µM and the TGI (KM12 colon) was 3.92 µM. It also gave a GI50 (MALME-3M melanoma) of 1.76 µM, a TGI (MALME-3M melanoma) of 3.22 µM and a GI50 (MDA-MB-435) of 1.67 µM. For the same compound, the TGI (MDA-MB-435) was 3.06 µM, the GI50 (MOLT-4 leukemia) was 0.265 µM and the TGI (MOLT-4 leukemia) was 0.713 µM. It also gave a GI50 (NCI-H460 lung) of 0.202 µM, a TGI (NCI-H460 lung) of 0.409 µM and a GI50 (OVCAR-3 ovarian) of 1.58 µM. For the same compound, the TGI (OVCAR-3 ovarian) was 3.16 µM, the GI50 (OVCAR-5 ovarian) was 1.49 µM and the TGI (OVCAR-5 ovarian) was 2.84 µM. The GI50 (RPMI-8226 leukemia) was 0.271 µM, the TGI (RPMI-8226 leukemia) was 0.671 µM and the GI50 (SK-MEL-2 melanoma) was 1.83 µM. It also gave a TGI (SK-MEL-2 melanoma) of 3.48 µM, a GI50 (SK-MEL-5 melanoma) of 1.65 µM and a TGI (SK-MEL-5 melanoma) of 3.06 µM. It also gave a GI50 (SN12C renal) of 1.6 µM, a TGI (SN12C renal) of 3 µM and a GI50 (SNB-75 CNS) of 1.56 µM. For the same compound, the TGI (SNB-75 CNS) was 2.93 µM, the GI50 (SR leukemia) was 0.171 µM and the TGI (SR leukemia) was 4.14 µM. It also gave a GI50 (SW-620 colon) of 0.186 µM, a TGI (SW-620 colon) of 0.379 µM and a GI50 (T-47D breast) of 1.28 µM. For the same compound, the TGI (T-47D breast) was 3.59 µM, the GI50 (TK-10 renal) was 1.9 µM and the TGI (TK-10 renal) was 3.35 µM. For the same compound, the GI50 (UO-31 renal) was 1.47 µM and the TGI (UO-31 renal) was 2.78 µM.
